Patent US20260001914A1, “MACROCYCLIC PEPTIDES TARGETING KRAS” (Merck Sharp & Dohme LLC, priority 2022, published 2026)
*1 amine or outer side, *2 acyl side, *3 side chain or, on linkers, in order; H or OH if unused. Where a SMILES comes first, the peptide text is derived from it. Bridges are numbered along the chain shown (N, C = ends). [ ]: non-standard residue; d: D form. cBu(1-CO,cis-3-CH2NH) = O=C([C@H]1C[C@@H](CN[*:1])C1)[*:2]; NMeNva(5-imidazol-1-yl) = CN[C@@H](CCCn1ccnc1)C(=O)O; Phe(4-guanidino) = N=C(N)Nc1ccc(C[C@H](N)C(=O)O)cc1; X65 = O=C([C@H](CCCn1ccnc1[N+](=O)[O-])N[*:1])[*:2]; X19 = C[C@H](c1ccccc1)[C@@H](C(=O)[*:2])N(C)[*:1]; N(3-imidazol-1-ylpropyl)Gly = O=C(O)CNCCCn1ccnc1; X77 = O=C([C@H](Cc1cnn(C2CCOCC2)c1)N[*:1])[*:2]; Ala(pyrimidin-5-yl) = N[C@@H](Cc1cncnc1)C(=O)O; NMePhe(3-Me) = CN[C@@H](Cc1cccc(C)c1)C(=O)O; NMePhe(4-F) = CN[C@@H](Cc1ccc(F)cc1)C(=O)O; X24 = O=C([C@H](Cc1ccncc1Cl)N[*:1])[*:2]; Lys(N3) = [N-]=[N+]=NCCCC[C@H](N)C(=O)O; X11 = CC(C)(F)CC[C@H](N[*:1])C(=O)[*:2]; X13 = O=C([C@H](Cc1ccncc1F)N[*:1])[*:2]; NMeAha = CN[C@@H](CCN=[N+]=[N-])C(=O)O; X32 = CS(=O)(=O)CCCN(CC(=O)[*:2])[*:1]; Phe(2-F) = N[C@@H](Cc1ccccc1F)C(=O)O; Abu(4,4-F2) = N[C@@H](CC(F)F)C(=O)O; Gly(octyl) = CCCCCCCC[C@H](N)C(=O)O; NMe3Pal = CN[C@@H](Cc1cccnc1)C(=O)O; X1 = O=C(C12CC(CN[*:1])(C1)C2)[*:2]; NMeR = CN[C@@H](CCCNC(=N)N)C(=O)O; Ala(cPr) = N[C@@H](CC1CC1)C(=O)O; NMeF = CN[C@@H](Cc1ccccc1)C(=O)O; PhLac = O=C(O)[C@@H](O)Cc1ccccc1; 3Pal = N[C@@H](Cc1cccnc1)C(=O)O; d3Pal = N[C@H](Cc1cccnc1)C(=O)O; X50 = CC(CCCC(=O)[*:2])N[*:1]; Ahp(2) = CCCCC[C@H](N)C(=O)O; Cba = N[C@@H](CC1CCC1)C(=O)O; NMeNle = CCCC[C@H](NC)C(=O)O; hLeu = CC(C)CC[C@H](N)C(=O)O; αMeC = C[C@](N)(CS)C(=O)O; NMeA = CN[C@@H](C)C(=O)O; Nle = CCCC[C@H](N)C(=O)O

Each compound was assayed against KRAS-G12D protein (Homo sapiens, UniProt P01116, G12D) (assay: SOS-mediated nucleotide exchange assay (BODIPY-GDP / Tb-streptavidin TR-FRET)). Details: not given.
Format: biochemical

Chain of KRAS-G12D protein (P01116 1-188 isoform P01116-2 G12D): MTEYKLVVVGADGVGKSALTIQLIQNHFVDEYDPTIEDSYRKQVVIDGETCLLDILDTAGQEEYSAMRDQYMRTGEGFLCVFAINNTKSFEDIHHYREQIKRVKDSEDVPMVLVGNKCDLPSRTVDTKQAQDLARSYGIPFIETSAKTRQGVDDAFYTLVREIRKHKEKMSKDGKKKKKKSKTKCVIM

| SMILES | EC50 |
| --- | --- |
| C[C@H]1C(=O)N[C@@H](Cc2cncnc2)C(=O)N[C@@H](CC2CC2)C(=O)N[C@@H](Cc2ccccc2F)C(=O)N[C@@H](CC(F)F)C(=O)N(C)[C@@H](Cc2ccccc2)C(=O)NCC23CC(C2)(C3)C(=O)O[C@@H](Cc2ccccc2)C(=O)N1C [compound 271, cyclo(FLac-NMeA-PyrimAla-cPrA-Phe2F-AbuF2-NMeF-amBCP)] (cyclo([Ala(cPr)][Phe(2-F)][Abu(4,4-F2)][NMeF][X1][PhLac][NMeA][Ala(pyrimidin-5-yl)])) | 730 nM |
| CCCC[C@@H]1NC(=O)[C@H](Cc2cccnc2)NC(=O)[C@H](C)N(C)C(=O)[C@H](Cc2ccccc2)NC(=O)CSC[C@@](C)(C(N)=O)NC(=O)[C@H](Cc2ccccc2)N(C)C(=O)[C@H](CCCC)NC(=O)[C@H](Cc2ccccc2F)NC1=O [compound 159, cyclo(F-NMeA-3Pal-Nle-Phe2F-Nle-NMeF-aMeCl-ClAc)] ({CH2CO}-F[NMeA][3Pal][Nle][Phe(2-F)][Nle][NMeF][αMeC]-NH2; thioether N-8) | 110 nM |
| CCCC[C@@H]1NC(=O)[C@H](Cc2cncnc2)NC(=O)[C@H](C)N(C)C(=O)[C@H](Cc2ccccc2)OC(=O)C23CC(CNC(=O)[C@H](Cc4ccc(F)cc4)N(C)C(=O)[C@H](CCCC)NC(=O)[C@H](Cc4ccccc4F)NC1=O)(C2)C3 [compound 173, cyclo(FLac-NMeA-PyrimAla-Nle-Phe2F-Nle-NMePhe4F-amBCP)] (cyclo([NMeA][Ala(pyrimidin-5-yl)][Nle][Phe(2-F)][Nle][NMePhe(4-F)][X1][PhLac])) | 12.5 nM |
| CCCC[C@@H]1NC(=O)[C@H](Cc2ccc(NC(=N)N)cc2)NC(=O)[C@H](CCCNC(=N)N)NC(=O)[C@H](Cc2ccccc2)NC(=O)CCCC(C)NC(=O)[C@H](Cc2ccccc2)N(C)C(=O)[C@H](CCCC)NC(=O)[C@H](Cc2ccc(OC)cc2)NC1=O (stereo partly drawn) [compound 93, cyclo(F-R-Phe4Gn-Nle-TyrOMe-Nle-NMeF-SamHex)] (cyclo(FR[Phe(4-guanidino)][Nle]Y(Me)[Nle][NMeF][X50])) | 142 nM |
| COc1ccc(C[C@@H]2NC(=O)[C@H](CC3CCC3)NC(=O)[C@H](Cc3cccnc3)NC(=O)[C@H](CCCNC(=N)N)NC(=O)[C@H](Cc3ccccc3)NC(=O)CSC[C@](C)(C(N)=O)NC(=O)[C@@H]3CCCCCCC[C@H](NC2=O)C(=O)N3C)cc1 [SEQ ID NO: 192, cyclo(F-R-3Pal-cBuA-TyrOMe-AheNMeHag-aMeC-C1Ac)] | 127 nM |
| CCCC[C@@H]1NC(=O)[C@H](Cc2cccnc2)NC(=O)[C@H](C)N(C)C(=O)[C@H](Cc2ccccc2)OC(=O)C23CC(CNC(=O)[C@H](Cc4cccnc4)N(C)C(=O)[C@H](CCCC)NC(=O)[C@H](Cc4ccccc4F)NC1=O)(C2)C3 [compound 244, cyclo(FLac-NMeA-3Pal-Nle-Phe2F-Nle-NMe3Pal-amBCP)] (cyclo([3Pal][Nle][Phe(2-F)][Nle][NMe3Pal][X1][PhLac][NMeA])) | 36 nM |
| CCCC[C@@H]1NC(=O)[C@H](Cc2cccnc2)NC(=O)[C@H](CCCn2ccnc2)N(C)C(=O)[C@H](Cc2ccccc2)N(C)C(=O)[C@H]2C[C@@H](CNC(=O)[C@H](Cc3cccnc3)N(C)C(=O)[C@H](CCCCN=[N+]=[N-])NC(=O)[C@H](Cc3ccccc3F)NC1=O)C2 [compound 157, cyclo(NMeF-NMeNvalmid-3Pal-Nle-Phe2F-LysN3-NMe3Pal-c3amCblc)] (cyclo([3Pal][Nle][Phe(2-F)][Lys(N3)][NMe3Pal][cBu(1-CO,cis-3-CH2NH)][NMeF][NMeNva(5-imidazol-1-yl)])) | 7760 nM |
| CCCCCCCC[C@@H]1NC(=O)[C@H](Cc2ccc(O)cc2)NC(=O)[C@H](CC(C)C)NC(=O)[C@H](Cc2ccc(O)cc2)NC(=O)[C@H](CCCNC(=N)N)NC(=O)[C@H](Cc2ccccc2)NC(=O)CSC[C@@H](C(=O)NCC(=O)N[C@@H](CCCCN)C(=O)N[C@@H](CCCCN)C(N)=O)NC(=O)[C@H](Cc2ccccc2)N(C)C1=O [compound 59, cyclo(-F-R-Y-L-Y-Aca-NMeF-C2-ClAc)] ({CH2CO}-FRYLY[Gly(octyl)][NMeF]CGKK-NH2; thioether N-8) | 812 nM |
| CC(C)CC[C@@H]1NC(=O)[C@H](Cc2ccncc2F)NC(=O)[C@H](CC2CC2)NC(=O)[C@H](Cc2cncnc2)NC(=O)[C@H](C)N(C)C(=O)[C@H](Cc2ccccc2)OC(=O)C23CC(CNC(=O)[C@H](Cc4ccccc4)N(C)C1=O)(C2)C3 [compound 214, cyclo(FLac-NMeA-PyrimAla-cPrA-4Pal2F-hL-NMeF-amBCP)] (cyclo([Ala(cPr)][X13][hLeu][NMeF][X1][PhLac][NMeA][Ala(pyrimidin-5-yl)])) | 2.69 nM |
| CCCCC[C@@H]1NC(=O)[C@H](Cc2ccc(OC)cc2)NC(=O)[C@H](CC2CCC2)NC(=O)[C@H](Cc2ccc(NC(=N)N)cc2)NC(=O)CN(CCCS(C)(=O)=O)C(=O)[C@H](Cc2ccccc2)NC(=O)CSC[C@@](C)(C(N)=O)NC(=O)[C@H](Cc2ccccc2)N(C)C1=O [compound 389, cyclo(F-Mspg-Phe4Gn-cBuA-TyrOMe-Ahp-NMeF-aMeCl-ClAc)] ({CH2CO}-F[X32][Phe(4-guanidino)][Cba]Y(Me)[Ahp(2)][NMeF][αMeC]-NH2; thioether N-8) | 441 nM |
| CC(C)CC[C@@H]1NC(=O)[C@H](Cc2ccncc2Cl)NC(=O)[C@H](CC2CC2)NC(=O)[C@H](Cc2cncnc2)NC(=O)[C@H](C)N(C)C(=O)[C@H](Cc2ccccc2)OC(=O)C23CC(CNC(=O)[C@H](Cc4ccccc4)N(C)C1=O)(C2)C3 [compound 298, cyclo(FLac-NMeA-PyrimAla-cPrA-4Pal2Cl-hL-NMeF-amBCP)] (cyclo([Ala(cPr)][X24][hLeu][NMeF][X1][PhLac][NMeA][Ala(pyrimidin-5-yl)])) | 11 nM |
| CCCC[C@@H]1NC(=O)[C@H](Cc2ccccc2F)NC(=O)[C@H](CC2CCC2)NC(=O)[C@@H](Cc2cccnc2)NC(=O)CN(CCCn2ccnc2)C(=O)[C@H](Cc2ccccc2)NC(=O)C23CC(CNC(=O)[C@H](Cc4cccnc4)N(C)C1=O)(C2)C3 [compound 181, cyclo(F-IPG-d3Pal-cBuA-Phe2F-Nle-NMe3Pal-amBCP)] (cyclo(F[N(3-imidazol-1-ylpropyl)Gly][d3Pal][Cba][Phe(2-F)][Nle][NMe3Pal][X1])) | 1230 nM |
| CCCC[C@@H]1NC(=O)[C@H](Cc2ccc(OC)cc2)NC(=O)[C@H](CC2CCC2)NC(=O)[C@H](Cc2cccnc2)NC(=O)[C@H](CCCNC(=N)N)NC(=O)[C@H](Cc2ccccc2)NC(=O)C23CC(CNC(=O)[C@H](Cc4ccccc4)N(C)C1=O)(C2)C3 [compound 98, cyclo(F-R-3Pal-cBuA-TyrOMe-Nle-NMeF-amBCP)] (cyclo(FR[3Pal][Cba]Y(Me)[Nle][NMeF][X1])) | 5.47 nM |
| C[C@H](c1ccccc1)[C@H]1C(=O)NCC23CC(C2)(C3)C(=O)O[C@@H](Cc2ccccc2)C(=O)N(C)[C@@H](C)C(=O)N[C@@H](Cc2cncnc2)C(=O)N[C@@H](CC2CC2)C(=O)N[C@@H](Cc2ccccc2F)C(=O)N[C@@H](CCC(C)(C)F)C(=O)N1C [compound 341, cyclo(FLac-NMeA-PyrimAla-cPrA-Phe2F-hL3F-NMeRbMeF-amBCP)] (cyclo([Ala(cPr)][Phe(2-F)][X11][X19][X1][PhLac][NMeA][Ala(pyrimidin-5-yl)])) | 1370 nM |
| CCCC[C@@H]1NC(=O)[C@H](Cc2cnn(C3CCOCC3)c2)NC(=O)[C@H](C)N(C)C(=O)[C@H](Cc2ccccc2)OC(=O)C23CC(CNC(=O)[C@H](Cc4ccccc4)N(C)C(=O)[C@H](CCCC)NC(=O)[C@H](Cc4ccccc4F)NC1=O)(C2)C3 [compound 308, cyclo(FLac-NMeA-AlaPyzlTHP4-Nle-Phe2F-Nle-NMeF-amBCP)] (cyclo([NMeA][X77][Nle][Phe(2-F)][Nle][NMeF][X1][PhLac])) | 6.86 nM |
| CCCC[C@@H]1NC(=O)[C@H](Cc2cncnc2)NC(=O)[C@H](C)N(C)C(=O)[C@H](Cc2ccccc2)OC(=O)C23CC(CNC(=O)[C@H](Cc4cccc(C)c4)N(C)C(=O)[C@H](CCCC)NC(=O)[C@H](Cc4ccccc4F)NC1=O)(C2)C3 [compound 172, cyclo(FLac-NMeA-PyrimAla-Nle-Phe2F-Nle-NMePhe3Me-amBCP)] (cyclo([NMeA][Ala(pyrimidin-5-yl)][Nle][Phe(2-F)][Nle][NMePhe(3-Me)][X1][PhLac])) | 6.03 nM |
| CCCC[C@@H]1NC(=O)[C@H](Cc2cnc(C#N)nc2)NC(=O)[C@H](C)N(C)C(=O)[C@H](Cc2ccccc2)OC(=O)C23CC(CNC(=O)[C@H](Cc4ccccc4)N(C)C(=O)[C@H](CCCC)NC(=O)[C@H](Cc4ccccc4F)NC1=O)(C2)C3 (single isomer, unassigned) [compound 315, cyclo(FLac-NMeA-AlaPyrim4CN-Nle-Phe2F-Nle-NMeF-amBCP)] | 5.28 nM |
| CCCC[C@@H]1NC(=O)[C@H](Cc2ccccc2F)NC(=O)[C@H](CC2CCC2)NC(=O)[C@@H](Cc2cccnc2)NC(=O)[C@H](CCCn2ccnc2[N+](=O)[O-])NC(=O)[C@H](Cc2ccccc2)NC(=O)C23CC(CNC(=O)[C@H](Cc4cccnc4)N(C)C1=O)(C2)C3 [compound 107, cyclo(F-NO2IMNva-d3Pal-cBuA-Phe2F-Nle-NMe3Pal-amBCP)] (cyclo(F[X65][d3Pal][Cba][Phe(2-F)][Nle][NMe3Pal][X1])) | 242 nM |
| CCCC[C@@H]1NC(=O)[C@H](Cc2ccccc2F)NC(=O)[C@H](CCCC)N(C)C(=O)[C@@H](Cc2cccnc2)NC(=O)[C@H](CCCNC(=N)N)N(C)C(=O)[C@H](Cc2ccccc2)NC(=O)C23CC(CNC(=O)[C@H](Cc4cccnc4)N(C)C1=O)(C2)C3 [compound 109, cyclo(F-NMeR-d3Pal-NMeNle-Phe2F-Nle-NMe3Pal-amBCP)] (cyclo(F[NMeR][d3Pal][NMeNle][Phe(2-F)][Nle][NMe3Pal][X1])) | 1200 nM |
| CCCC[C@@H]1NC(=O)[C@H](Cc2cccnc2)NC(=O)[C@H](CCN=[N+]=[N-])N(C)C(=O)[C@H](Cc2ccccc2)OC(=O)C23CC(CNC(=O)[C@H](Cc4cccnc4)N(C)C(=O)[C@H](CCCC)NC(=O)[C@H](Cc4ccccc4F)NC1=O)(C2)C3 [compound 249, cyclo(FLac-NMeDabN3-3Pal-Nle-Phe2F-Nle-NMe3Pal-amBCP)] (cyclo([3Pal][Nle][Phe(2-F)][Nle][NMe3Pal][X1][PhLac][NMeAha])) | 87.6 nM |

Same assay, conditions: listed as 190

| SMILES | EC50 |
| --- | --- |
| COc1ccc(C[C@@H]2NC(=O)[C@H](CC3CCC3)NC(=O)[C@H](Cc3cccnc3)NC(=O)[C@H](CCCNC(=N)N)NC(=O)[C@H](Cc3ccccc3)NC(=O)CSC[C@](C)(C(N)=O)NC(=O)[C@@H]3CCCCCCC[C@H](NC2=O)C(=O)N3C)cc1 (single isomer, unassigned) [SEQ ID NO: 190] | 650 nM |
